Source: the supplement of paper PMC10307832

Experiments:
Assay in all cases: relative viability (nuclei count vs DMSO), 5 days (fraction); higher = more cells survive
[1] = compound: C1CC(C2=C(C1)C3=C(N2)C=CC(=C3)Cl)C(=O)N [Selisistat] + COc1cccc2cc(-c3nc([C@H]4CC[C@H](C(=O)O)CC4)n4ncnc(N)c34)[nH]c12 [OSI-027] (partner 0.5 µM)
How it was run: (§1)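 Five library-drug doses in √10 steps were combined with a fixed anchor-drug dose, or a single drug was given alone, by pin tool to lung cancer cell lines in 1536-well plates the day after seeding. Nuclei were stained and counted after 5 days. Relative viability is the nuclei count in treated wells over that in vehicle wells, taken as the median of duplicate plates.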

[2] = compound: c1ccc2c(CCNc3ccc(Nc4ccncc4)cc3)c[nH]c2c1 [Serdemetan] + CS(=O)(=O)CCNCc1ccc(-c2ccc3ncnc(Nc4ccc(OCc5cccc(F)c5)c(Cl)c4)c3c2)o1 [Lapatinib] (partner 2 µM)
How it was run: as §1

[3] = compound: c1ccc2c(CCNc3ccc(Nc4ccncc4)cc3)c[nH]c2c1 [Serdemetan] + Cc1nc(Nc2ncc(C(=O)Nc3c(C)cccc3Cl)s2)cc(N2CCN(CCO)CC2)n1 [Dasatinib] (partner 0.075 µM)
How it was run: as §1

[4] = compound: C1CC(C2=C(C1)C3=C(N2)C=CC(=C3)Cl)C(=O)N [Selisistat] + CS(=O)(=O)N1CCN(Cc2cc3nc(-c4cccc5[nH]ncc45)nc(N4CCOCC4)c3s2)CC1 [Pictilisib] (partner 1 µM)
How it was run: as §1

| Cell Line | relative viability ([1]; first compound 0.4 µM) | relative viability ([1]; first compound 1.265 µM) | relative viability ([1]; first compound 4 µM) | relative viability ([1]; first compound 12.65 µM) | relative viability ([1]; first compound 40 µM) | relative viability ([2]; first compound 0.04 µM) | relative viability ([2]; first compound 0.1265 µM) | relative viability ([2]; first compound 0.4 µM) | relative viability ([2]; first compound 1.265 µM) | relative viability ([2]; first compound 4 µM) | relative viability ([3]; first compound 0.04 µM) | relative viability ([3]; first compound 0.1265 µM) | relative viability ([3]; first compound 0.4 µM) | relative viability ([3]; first compound 1.265 µM) | relative viability ([3]; first compound 4 µM) | relative viability ([4]; first compound 0.4 µM) | relative viability ([4]; first compound 1.265 µM) | relative viability ([4]; first compound 4 µM) | relative viability ([4]; first compound 12.65 µM) | relative viability ([4]; first compound 40 µM) |
| --- | --- | --- | --- | --- | --- | --- | --- | --- | --- | --- | --- | --- | --- | --- | --- | --- | --- | --- | --- | --- |
| NCI-H1650 | 0.633 | 0.517 | 0.551 | 0.534 | 0.611 | 0.718 | 0.768 | 0.599 | 0.846 | 0.558 | 0.297 | 0.345 | 0.272 | 0.34 | 0.268 | 0.692 | 0.59 | 0.516 | 0.589 | 0.548 |
| BEN | 0.263 | 0.251 | 0.282 | 0.282 | 0.274 | 0.623 | 0.704 | 0.592 | 0.359 | 0.556 | 0.302 | 0.3 | 0.312 | – | 0.356 | 0.581 | 0.578 | 0.459 | 0.548 | 0.521 |
| EMC-BAC-2 | 0.391 | 0.358 | 0.462 | 0.362 | 0.342 | 0.909 | 0.899 | 0.92 | 0.732 | 0.841 | 0.304 | 0.358 | 0.344 | 0.268 | 0.293 | 0.551 | 0.53 | 0.477 | 0.577 | 0.524 |
| LU99A | 0.345 | 0.283 | 0.344 | 0.288 | 0.297 | 1.03 | 0.927 | 1.07 | 0.363 | 0.229 | 0.545 | 0.515 | 0.592 | 0.217 | 0.232 | 0.336 | 0.35 | 0.404 | 0.373 | 0.299 |
| ABC-1 | 0.499 | 0.447 | 0.331 | 0.442 | 0.436 | 1.08 | 1.07 | 1.25 | – | 0.717 | 0.541 | 0.575 | 0.585 | 0.402 | 0.429 | 0.782 | 0.895 | 0.728 | 0.758 | 0.773 |
| NCI-H2170 | 0.839 | 0.692 | 0.63 | 0.766 | 0.739 | 0.322 | 0.298 | 0.285 | 0.268 | 0.273 | 0.437 | 0.612 | 0.474 | 0.513 | 0.569 | 0.323 | 0.338 | 0.275 | 0.303 | 0.378 |
| NCI-H1299 | – | – | – | – | – | 0.939 | 0.984 | 0.985 | 0.78 | 0.767 | – | – | – | – | – | 0.778 | 0.744 | 1.02 | 0.849 | 0.692 |
| EBC-1 | – | – | – | – | – | 0.23 | 0.238 | 0.218 | 0.21 | 0.203 | – | – | – | – | – | 0.373 | 0.286 | 0.46 | 0.454 | 0.389 |
| NCI-H2347 | 0.61 | 0.403 | 0.246 | 0.482 | 0.46 | 0.8 | 0.938 | 0.781 | 0.812 | 0.872 | 0.336 | 0.305 | 0.286 | 0.303 | 0.237 | 0.374 | 0.714 | 0.294 | 0.541 | 0.56 |
